Results as given in ChEMBL document CHEMBL3351785, “Discovery of nanomolar phosphoinositide 3-kinase gamma (PI3Kγ) inhibitors using ligand-based modeling and virtual screening followed by in vitro analysis” (Eur J Med Chem, 2014).
pIC50: −log10 of the molar value. Non-standard residues stand in square brackets, D forms with d. Residues, ends and D or L forms follow the SMILES beside them. *: point of attachment. Cbz = O=C(OCc1ccccc1)*; Nva = CCC[CH](N)C(=O)O; Bn = c1ccc(C*)cc1

molecular target: T1, Phosphatidylinositol 4,5-bisphosphate 3-kinase catalytic subunit gamma isoform (Homo sapiens, UniProt P48736); experiment: Inhibition of PI3Kgamma (unknown origin) assessed as decrease in fluorescence intensity using phosphorylated substrate at 10 uM
Target sequence in this assay (P48736 whole entry, looked up, canonical isoform): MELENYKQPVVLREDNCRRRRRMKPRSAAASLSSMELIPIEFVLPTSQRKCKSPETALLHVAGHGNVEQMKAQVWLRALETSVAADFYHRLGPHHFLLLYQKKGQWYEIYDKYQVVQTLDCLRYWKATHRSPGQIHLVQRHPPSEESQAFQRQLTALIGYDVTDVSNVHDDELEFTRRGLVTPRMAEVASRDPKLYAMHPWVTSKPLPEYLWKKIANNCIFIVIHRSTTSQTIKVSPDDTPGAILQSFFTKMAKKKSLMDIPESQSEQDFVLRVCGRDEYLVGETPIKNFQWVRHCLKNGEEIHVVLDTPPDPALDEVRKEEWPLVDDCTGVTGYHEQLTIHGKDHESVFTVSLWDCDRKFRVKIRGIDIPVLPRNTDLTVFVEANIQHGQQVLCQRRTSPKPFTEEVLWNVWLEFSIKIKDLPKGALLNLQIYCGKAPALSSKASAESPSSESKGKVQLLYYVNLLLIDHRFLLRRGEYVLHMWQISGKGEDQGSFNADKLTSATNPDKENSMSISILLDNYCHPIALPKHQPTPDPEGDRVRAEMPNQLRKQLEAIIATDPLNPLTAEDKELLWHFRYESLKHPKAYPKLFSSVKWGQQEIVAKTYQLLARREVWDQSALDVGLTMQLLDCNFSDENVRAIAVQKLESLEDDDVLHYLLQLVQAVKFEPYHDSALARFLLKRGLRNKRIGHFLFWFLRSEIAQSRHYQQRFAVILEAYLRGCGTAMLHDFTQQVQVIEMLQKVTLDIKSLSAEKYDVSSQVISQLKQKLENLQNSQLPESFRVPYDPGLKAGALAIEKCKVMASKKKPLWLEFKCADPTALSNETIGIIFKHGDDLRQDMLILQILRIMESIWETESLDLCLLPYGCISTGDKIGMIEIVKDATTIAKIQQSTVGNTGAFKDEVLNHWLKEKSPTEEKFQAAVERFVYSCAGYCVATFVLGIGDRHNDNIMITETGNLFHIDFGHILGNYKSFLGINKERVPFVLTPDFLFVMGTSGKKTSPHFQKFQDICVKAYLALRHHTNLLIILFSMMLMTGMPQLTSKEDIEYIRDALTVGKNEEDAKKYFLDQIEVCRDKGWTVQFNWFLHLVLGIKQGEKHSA

Structure (SMILES) | inhibition [%]
COc1cc2cc(C(=O)O)[nH]c2cc1OCc1ccccc1 | 100
O=C(NC(Cc1ccc(OC(=O)OCc2ccccc2)cc1)C(=O)O)OCc1ccccc1 (stereo unspecified) | 79
O=C(COc1ccc(Cl)cc1C(=O)O)Nc1cccc(NC(=O)Nc2cccc(S(=O)(=O)F)c2)c1 | 51
COC[C@H]1OC(=O)c2coc3c2[C@@]1(C)C1=C(C3=O)[C@@H]2CCC(=O)[C@@]2(C)C[C@H]1OC(C)=O | 100
O=C(O)Cc1ccc(OCCCOc2ccc(CC(=O)O)cc2)cc1 | 24
O=S(=O)(O)c1ccc(OCCCCCCCCCCOc2ccc(S(=O)(=O)O)cc2)cc1 | 11
O=C(O)C[S+]([O-])c1ccc2c3c(cccc13)C(=O)c1ccccc1-2 (stereo unspecified) | 67
O=C(O)c1ccccc1SC(Sc1ccccc1C(=O)O)c1cccc(Cl)c1 | 88
CC(C)CC(NC(=O)OCc1ccccc1)C(=O)NC(Cc1ccc(O)cc1)C(=O)O (stereo not drawn) (Cbz-Leu-Tyr-OH; configuration not given here) | 57
CSCCC(NCc1c(O)ccc2c(-c3ccccc3)cc(=O)oc12)C(=O)O (stereo unspecified) | 27
COc1ccccc1/N=N/c1c(O)ccc2cc(S(=O)(=O)O)ccc12 | 19
O=C(NC(Cc1ccc(O)cc1)C(=O)O)C(=O)c1c[nH]c2ccc([N+](=O)[O-])cc12 (stereo unspecified) | 34
O=S(=O)(O)c1cc(O)c2ccc(Nc3ccc4c(O)cc(S(=O)(=O)O)cc4c3)cc2c1 | 31
O=S(=O)(O)c1ccc2c(/N=N/c3ccccc3Cl)c(O)ccc2c1 | 76
COc1ccccc1/N=N/c1c(O)c(S(=O)(=O)O)cc2cc(S(=O)(=O)O)ccc12 | 76
O=C(CCCCn1cnc2c(SCc3ccccc3)ncnc21)Nc1ccc(C(=O)O)c(O)c1 | 37
CCCCOc1ccc(CCC(=O)O)cc1OCCCC | 20
O=S(=O)(O)c1ccc(OCCCCCCCCOc2ccc(S(=O)(=O)O)cc2)cc1 | 83
O=C(O)CCC(=O)c1ccc(Oc2ccc(Cl)cc2)cc1 | 51
Cc1ccccc1/N=N\c1ccc(/N=N/c2c(O)ccc3cc(S(=O)(=O)O)ccc23)c(C)c1 | 64

Structure (SMILES) | inhibition [%]
COc1cc(/N=N\c2ccc(S(=O)(=O)O)cc2)ccc1/N=N/c1c(O)ccc2cc(S(=O)(=O)O)ccc12 | 62
CCCC(NC(=O)OCc1ccccc1)C(=O)NC(Cc1ccc(O)cc1)C(=O)O (stereo unspecified) (Cbz-[Nva]-Tyr-OH; configuration not given here) | 10
O=C(NC(CSCc1ccccc1)C(=O)NC(Cc1ccc(O)cc1)C(=O)O)OCc1ccccc1 (stereo unspecified) (Cbz-Cys(Bn)-Tyr-OH; configuration not given here) | 40
CCCCOc1ccc(C(CC(=O)O)CC(=O)O)cc1OC | 98
O=C(O)Cc1ccc(OCCCCCOc2ccc(CC(=O)O)cc2)cc1 | 7
COc1cc(C[C@@H](CC(=O)c2ccc3c(c2)OCO3)C(=O)O)cc(OC)c1OC | 83
CCN1C(=O)/C(=C\c2cc([N+](=O)[O-])ccc2OCC(=O)O)SC1=S | 81
Cc1cc(C(=O)O)c(C)cc1SSc1cc(C)c(C(=O)O)cc1C | 83
COc1cc(C(CC(=O)O)CC(=O)O)ccc1OCc1ccccc1 | 57
O=C(NC(Cc1ccccc1)C(=O)NC(Cc1ccc(O)cc1)C(=O)O)OCc1ccccc1 (stereo not drawn) (Cbz-Phe-Tyr-OH; configuration not given here) | 34
Cc1cc2c(cc1C(=O)CCC(=O)O)CC1(C2)Cc2cc(C)c(C(=O)CCC(=O)O)cc2C1 | 67
O=C(O)C(Nc1ccc(Oc2ccc(NC(C(=O)O)c3ccccc3)cc2)cc1)c1ccccc1 (stereo unspecified) | 57
COc1cc2cc3c4cc(OC)c(OC)cc4cc[n+]3c(CCC(=O)O)c2cc1OC | 57
CCOc1ccc(Nc2ccc3c(O)cc(S(=O)(=O)O)cc3c2)cc1 | 72
COc1ccc2cc(C(=O)CCCC(C)C(=O)O)ccc2c1 (stereo unspecified) | 58
COc1ccc(C(CC(=O)O)c2cc(OC)c(OC)c(OC)c2)cc1OC (stereo unspecified) | 58
CCOc1nc(OCC)c2[nH]c(C(=O)O)c(Br)c2n1 | 50
COc1ccc(C(CC(=O)c2ccc3c(c2)OCO3)C(=O)O)cc1OC (stereo unspecified) | 94
CCCCCCCCCCCCCCCC1=NN(c2ccc(S(=O)(=O)O)cc2)C(=O)C1/N=N/c1ccccc1 (stereo unspecified) | 92

molecular target: T1, Phosphatidylinositol 4,5-bisphosphate 3-kinase catalytic subunit gamma isoform; experiment: Inhibition of PI3Kgamma (unknown origin) assessed as decrease in fluorescence intensity using phosphorylated substrate
Target sequence in this assay (P48736 whole entry, canonical isoform): as the sequence (P48736 whole entry, looked up, canonical isoform) above

Structure (SMILES) | pIC50
O=C1NC(=S)S/C1=C\c1ccc2c(c1)N(CCc1ccc(F)c(F)c1)C(=O)CO2 | 7.69
O=c1c2ccc(F)cc2nc(CSc2ncnc3[nH]cnc23)n1-c1ccccc1Cl | 3.84
COc1ccccc1-c1ccc(/C=C2\SC(=O)NC2=O)o1 | 6.00
COc1cc2cc(C(=O)O)[nH]c2cc1OCc1ccccc1 | 6.98
O=C(NC(Cc1ccc(OC(=O)OCc2ccccc2)cc1)C(=O)O)OCc1ccccc1 (stereo unspecified) | 6.49
O=C(COc1ccc(Cl)cc1C(=O)O)Nc1cccc(NC(=O)Nc2cccc(S(=O)(=O)F)c2)c1 | 5.04
COc1ccccc1-n1c(CSc2ncnc3[nH]cnc23)nc2cccc(C)c2c1=O | 5.74
O=C1NC(=S)S/C1=C\c1ccc2c(c1)N(CCc1ccc(Cl)c(Cl)c1)C(=O)CO2 | 7.74
O=C1NC(=S)S/C1=C\c1ccc2c(c1)N(CCc1ccccc1)C(=O)CO2 | 6.99
O=C1NC(=S)S/C1=C\c1ccc2c(c1)N(CCc1ccc(Cl)cc1Cl)C(=O)CO2 | 7.74
CC(C)(C)c1ccc(CN2C(=O)COc3ccc(/C=C4\SC(=S)NC4=O)cc32)cc1 | 7.99
O=C(O)C[S+]([O-])c1ccc2c3c(cccc13)C(=O)c1ccccc1-2 (stereo unspecified) | 5.80
O=C(O)c1ccccc1SC(Sc1ccccc1C(=O)O)c1cccc(Cl)c1 | 6.73
COc1ccc(CCN2C(=O)COc3ccc(/C=C4\SC(=S)NC4=O)cc32)cc1 | 7.56
Cc1cccc(CCN2C(=O)COc3ccc(/C=C4\SC(=S)NC4=O)cc32)c1 | 7.68
COc1cccc(CCN2C(=O)COc3ccc(/C=C4\SC(=S)NC4=O)cc32)c1 | 7.95
Cc1ccc(CCN2C(=O)COc3ccc(/C=C4\SC(=S)NC4=O)cc32)cc1 | 7.43
O=c1c2ccccc2nc(CSc2ncnc3[nH]cnc23)n1-c1ccccc1Cl | 4.55
O=c1cc(N2CCOCC2)[nH]c2c(Oc3ccc(F)cc3)cccc12 | 4.74

Structure (SMILES) | pIC50
O=C1NC(=S)S/C1=C\c1ccc2c(c1)N(CCc1cccc(Cl)c1)C(=O)CO2 | 7.74
N#Cc1ccc(CN2C(=O)COc3ccc(/C=C4\SC(=S)NC4=O)cc32)cc1 | 6.82
O=C1NC(=S)S/C1=C\c1ccc2c(c1)N(CCc1ccc(C(F)(F)F)cc1)C(=O)CO2 | 8.09
O=c1c2c(Cl)cccc2nc(CSc2ncnc3[nH]cnc23)n1-c1ccccc1F | 5.44
O=C1NC(=S)S/C1=C\c1ccc2c(c1)N(Cc1ccc(C(F)(F)F)cc1)C(=O)CO2 | 6.94
O=c1cc(N2CCOCC2)[nH]c2c(Oc3ccccc3F)cccc12 | 5.14
O=C1NC(=S)S/C1=C\c1ccc2c(c1)N(CCc1ccc(Br)cc1)C(=O)CO2 | 8.00
O=c1cc(N2CCOCC2)[nH]c2c(OCc3ccccc3)cccc12 | 4.96
Cc1cccc2nc(CSc3ncnc4[nH]cnc34)n(-c3ccccc3Cl)c(=O)c12 | 5.21
CC(C)(C)c1ccc(CCN2C(=O)COc3ccc(/C=C4\SC(=S)NC4=O)cc32)cc1 | 6.85
O=c1cc(N2CCOCC2)[nH]c2c(Cc3ccccc3)cccc12 | 4.96
COc1ccccc1CNc1cc(C)cc2c(=O)cc(N3CCOCC3)[nH]c12 | 4.97
Cc1ccc(CN2C(=O)COc3ccc(/C=C4\SC(=S)NC4=O)cc32)cc1 | 6.91
O=C1NC(=S)S/C1=C\c1ccc2c(c1)N(Cc1ccccc1)C(=O)CO2 | 7.01
COc1cc(CCN2C(=O)COc3ccc(/C=C4\SC(=S)NC4=O)cc32)cc(OC)c1 | 7.93
O=c1c2c(Cl)cccc2nc(CSc2ncnc3[nH]cnc23)n1-c1ccccc1-c1ccccc1 | 5.12
O=c1c2c(Cl)cccc2nc(CSc2ncnc3[nH]cnc23)n1-c1ccccc1Cl | 5.26
Cc1ccc(CN2C(=O)COc3ccc(/C=C4\SC(=S)NC4=O)cc32)cc1C | 7.96
O=C1NC(=S)S/C1=C\c1ccc(-c2cc([N+](=O)[O-])ccc2Br)o1 | 5.44

Structure (SMILES) | pIC50
CCCCOc1ccc(C(CC(=O)O)CC(=O)O)cc1OC | 6.87
COc1cc(C[C@@H](CC(=O)c2ccc3c(c2)OCO3)C(=O)O)cc(OC)c1OC | 6.24
Cc1cc(C)cc(CCN2C(=O)COc3ccc(/C=C4\SC(=S)NC4=O)cc32)c1 | 7.95
Cc1cc(C(=O)O)c(C)cc1SSc1cc(C)c(C(=O)O)cc1C | 5.84
CCCCn1c(CSc2ncnc3[nH]cnc23)nc2ccccc2c1=O | 3.66
O=c1c2c(F)cccc2nc(CSc2ncnc3[nH]cnc23)n1-c1ccccc1Cl | 4.88
COc1cc(C(CC(=O)O)CC(=O)O)ccc1OCc1ccccc1 | 5.23
Cc1ccccc1-n1c(CSc2ncnc3[nH]cnc23)nc2cccc(Cl)c2c1=O | 5.60
Cc1cccc(CN2C(=O)COc3ccc(/C=C4\SC(=S)NC4=O)cc32)c1 | 6.73
O=C1NC(=S)S/C1=C\c1ccc2c(c1)N(Cc1ccc(Cl)cc1)C(=O)CO2 | 7.52
COc1cc2cc3c4cc(OC)c(OC)cc4cc[n+]3c(CCC(=O)O)c2cc1OC | 5.13
O=c1c2ccccc2nc(CSc2ncnc3[nH]cnc23)n1N1CCOCC1 | 3.86
CCOc1ccc(Nc2ccc3c(O)cc(S(=O)(=O)O)cc3c2)cc1 | 6.00
COc1ccc2cc(C(=O)CCCC(C)C(=O)O)ccc2c1 (stereo unspecified) | 5.29
COc1ccc(C(CC(=O)O)c2cc(OC)c(OC)c(OC)c2)cc1OC (stereo unspecified) | 5.22
Cc1cc(F)ccc1Oc1cccc2c(=O)cc(N3CCOCC3)[nH]c12 | 4.74
O=C1NC(=S)S/C1=C\c1ccc2c(c1)N(CCc1ccc(Cl)cc1)C(=O)CO2 | 7.70
COc1cc(O)cc(/C=C2\SC(=S)NC2=O)c1 | 6.48
COc1ccc(C(CC(=O)c2ccc3c(c2)OCO3)C(=O)O)cc1OC (stereo unspecified) | 6.63
